Like-named read-outs stand apart in the source and are kept apart here.
Columns and labels:
[1] = Compound 122 saliva concentrations in healthy human subjects after oral administration (HPLC-MS/MS); assay type: in vivo; settings: for concentration at 2 h / concentration at 4 h / concentration at 8 h / concentration at 24 h / concentration at 0 h: human, saliva, po
Description: (§1) Stock solutions of Compound 122-HCl salt and internal standard 2-difluoromethoxy-5-trifluoromethoxy-benzyl)-(2-phenyl-piperidin-3-yl)-amine] HCl salt (hereinafter referred to as IS, for internal standard) were prepared at concentrations of 100 μg/ml in 1:1 Methanol/Water and stored at −20° C. […] Serial dilutions of the stock solutions were prepared in 1:1 Methanol/Water as needed. Standard curve samples were freshly prepared using serial dilutions of stock so that equivalent additions produced 0.1, 0.2, 0.5, 2, 10, and 50 ng/ml solutions in Control Human Saliva (CHS). Quality control samples were prepared from a different stock solution similarly at 0.15, 5, and 40 ng/ml in CHS.
Aliquots (50 μl) of Human saliva, 200 μl of 0.1% Ammonium Hydroxide and 50 μl of 2.0 ng/ml IS were added, in sequence, to one well of a 96 well block. The plate was centrifuged briefly to consolidate the above contents and placed onto a TomTec Quadra 96. An automatic program was used that performs the following steps: conditions a Waters brand 10 mg Oasis HLB plate with 100 μl Methanol and then 200 μl 50/50 Methanol/Water (containing 2% v/v Ammonium Hydroxide), transfers the 300 μl of sample to the plate, washes the plate with 400 μl of 50/50 Methanol/Water (containing 2% v/v Ammonium Hydroxide) and then elutes the drug and IS into a clean 96 deep well block with 200 μl of 70/30 Methanol/Water (containing 2% v/v Acetic Acid). The eluent was isolated, evaporated to dryness under a stream of Nitrogen, and reconstituted in 100 μl 60/40 Methanol/10 mM Ammonium Acetate (both containing 0.05% Formic Acid) and vortexed for approximately 30 seconds. The plate was then centrifuged for ˜1 minute at about 3000 RPM. Injection volumes introduced into HPLC system were typically […].
The mobile phase was a binary mixture (60/40) of Methanol and 10 mM Ammonium Acetate (both containing 0.05% Formic Acid). The analytical column was a Phenomenex LUNA Phenyl Hexyl, 5μ, 2.00×50 mm LC/MS column preceded by a 2.0 micron stainless steel precolumn filter. A Hewlett Packard 1100 series quaternary pump was used and a mobile phase flow rate of 0.30 ml/min was maintained. A CTC Analytics (LEAP) HTS PAL autosampler injected the 10 μl sample aliquots onto the column at approximately 3 minute intervals.
The analysis was performed on a Perkin Elmer SCIEX API 3000 triple quadrupole mass spectrometer operated in the positive ion mode. The effluent from the HPLC column was directly introduced into the TurbolonSpray ion source, which was operated at 1500V with a temperature of 375° C. and 6 L/sec nitrogen gas. Nitrogen nebulizer gas was set to 10 and curtain gas was set to 9. Analyte and IS responses were measured using multiple reaction monitoring (MRM). Protonated molecular ions for drug (m/z 381.4), and I.S. (m/z 417.1) were dissociated by collision with nitrogen. Collision gas (CAD) was set to 5 and a collision energy of 32 eV was used. Product ions at m/z 160.0 were monitored for both drug and IS runs.
Subjects were divided into three groups of six individuals: CYP2D6 extensive metabolizers (including one “intermediate” metabolizer), CYP2D6 extensive metabolizers receiving concurrent paroxetine as an inhibitor of CYP2D6 (also including one intermediate metabolizer), and CYP2D6 poor metabolizers. […] Saliva samples were collected on the first day of each study leg.
Samples were subjected to a solid phase extraction procedure followed by chromatography and analysis on a Sciex API3000 tandem quadrupole mass spectrometer.
Mean values were calculated in those cases in which half or greater of the individual values were >LLOQ. A value of zero was used in those cases wherein concentrations were <LLOQ. […] Cav is defined by AUC (0-24 hr)/24.

[2] = Stability of Compound 122 stock solution; assay type: physicochemical; settings: HCl salt, 100 μg/ml in 1:1 Methanol/Water, stored at −20° C.
Description: as §1

[3] = 10 mg, EM + paroxetine, Day 1, 10 mg q.d. oral, read-out: Mean saliva concentration, EM + paroxetine, Mean ± SD
[4] = 10 mg, EM + paroxetine, Day 6, 10 mg b.i.d. oral, read-out: Mean saliva concentration, EM + paroxetine, Mean ± SD
[5] = 10 mg, EM, Day 1, 10 mg q.d. oral, read-out: Mean saliva concentration, EM, Mean ± SD
[6] = 10 mg, EM, Day 6, 10 mg b.i.d. oral, read-out: Mean saliva concentration, EM, Mean ± SD
[7] = 10 mg, PM, Day 1, 10 mg q.d. oral, read-out: Mean saliva concentration, PM, Mean ± SD
[8] = 10 mg, PM, Day 6, 10 mg b.i.d. oral, read-out: Mean saliva concentration, PM, Mean ± SD
[9] = 30 mg, EM + paroxetine, Day 11, 30 mg q.d. oral, read-out: Mean saliva concentration, EM + paroxetine, Mean ± SD
[10] = 30 mg, EM + paroxetine, Day 16, 30 mg b.i.d. oral, read-out: Mean saliva concentration, EM + paroxetine, Mean ± SD
[11] = 30 mg, EM, Day 11, 30 mg q.d. oral, read-out: Mean saliva concentration, EM, Mean ± SD
[12] = 30 mg, EM, Day 16, 30 mg b.i.d. oral, read-out: Mean saliva concentration, EM, Mean ± SD
[13] = 30 mg, PM, Day 11, 30 mg q.d. oral, read-out: Mean saliva concentration, PM, Mean ± SD
[14] = 30 mg, PM, Day 16, 30 mg b.i.d. oral, read-out: Mean saliva concentration, PM, Mean ± SD
[15] = 100 mg, EM + paroxetine, Day 21, 100 mg q.d. oral, read-out: Mean saliva concentration, EM + paroxetine, Mean ± SD
[16] = 100 mg, EM, Day 21, 100 mg q.d. oral, read-out: Mean saliva concentration, EM, Mean ± SD
[17] = 100 mg, PM, Day 21, 100 mg q.d. oral, read-out: Mean saliva concentration, PM, Mean ± SD

COc1ccc(OC(F)(F)F)cc1CNC1CCCNC1c1ccccc1 (centres unmarked) [Compound 122, (2-methoxy-5-trifluoromethoxy-benzyl)-(2-phenyl-piperidin-3-yl)-amine]
mean salivary Cav ([1]; 30 mg b.i.d., Cav = AUC (0-24 hr)/24): 4.04 ng/mL
serum Cav corresponding to salivary Cav ([1]; 30 mg b.i.d., salivary Cav divided by fu): 58 ng/mL
concentration at 2 h [1, 3]: 0.5 ± 0.462 ng/mL
concentration at 4 h [1, 3]: 0.632 ± 0.773 ng/mL
concentration at 8 h [1, 3]: 0.533 ± 0.722 ng/mL
concentration at 24 h [1, 3]: 0.192 ± 0.332 ng/mL
concentration at 0 h [1, 4]: 3.21 ± 5.09 ng/mL
concentration at 2 h [1, 4]: 1.92 ± 1.83 ng/mL
concentration at 4 h [1, 4]: 2.97 ± 2.16 ng/mL
concentration at 8 h [1, 4]: 5.68 ± 9.27 ng/mL
concentration at 24 h [1, 4]: 2.16 ± 1.27 ng/mL
concentration at 2 h [1, 5]: 0.545 ± 0.518 ng/mL
concentration at 4 h [1, 5]: 0.524 ± 0.293 ng/mL
concentration at 8 h [1, 5]: 0.313 ± 0.164 ng/mL
concentration at 0 h [1, 6]: 0.27 ± 0.454 ng/mL
concentration at 2 h [1, 6]: 0.541 ± 0.465 ng/mL
concentration at 4 h [1, 6]: 0.987 ± 0.915 ng/mL
concentration at 8 h [1, 6]: 0.805 ± 1.18 ng/mL
concentration at 24 h [1, 6]: 0.418 ± 0.426 ng/mL
concentration at 2 h [1, 7]: 0.517 ± 0.261 ng/mL
concentration at 4 h [1, 7]: 2.23 ± 1.06 ng/mL
concentration at 8 h [1, 7]: 2.31 ± 1.32 ng/mL
concentration at 24 h [1, 7]: 1.05 ± 0.558 ng/mL
concentration at 0 h [1, 8]: 2.93 ± 2.45 ng/mL
concentration at 2 h [1, 8]: 2.85 ± 2.18 ng/mL
concentration at 4 h [1, 8]: 4.69 ± 3.28 ng/mL
concentration at 8 h [1, 8]: 3.23 ± 2.8 ng/mL
concentration at 24 h [1, 8]: 5.51 ± 4.39 ng/mL
concentration at 0 h [1, 9]: 3.86 ± 1.57 ng/mL
concentration at 2 h [1, 9]: 5.98 ± 2.9 ng/mL
concentration at 4 h [1, 9]: 9.51 ± 3.07 ng/mL
concentration at 8 h [1, 9]: 6.3 ± 1.69 ng/mL
concentration at 24 h [1, 9]: 5.59 ± 2.28 ng/mL
concentration at 0 h [1, 10]: 6.16 ± 4.58 ng/mL
concentration at 2 h [1, 10]: 9.11 ± 5.4 ng/mL
concentration at 4 h [1, 10]: 10 ± 6 ng/mL
concentration at 8 h [1, 10]: 9.69 ± 4.74 ng/mL
concentration at 24 h [1, 10]: 9.67 ± 5.91 ng/mL
concentration at 0 h [1, 11]: 1.16 ± 1.81 ng/mL
concentration at 2 h [1, 11]: 3.07 ± 2.77 ng/mL
concentration at 4 h [1, 11]: 4.03 ± 4.1 ng/mL
concentration at 8 h [1, 11]: 3.18 ± 2.99 ng/mL
concentration at 24 h [1, 11]: 1.92 ± 3.13 ng/mL
concentration at 0 h [1, 12]: 2.44 ± 4.17 ng/mL
concentration at 2 h [1, 12]: 2.91 ± 2.49 ng/mL
concentration at 4 h [1, 12]: 4.57 ± 3.03 ng/mL
concentration at 8 h [1, 12]: 3.44 ± 3.67 ng/mL
concentration at 24 h [1, 12]: 5.08 ± 7.08 ng/mL
concentration at 0 h [1, 13]: 8.31 ± 6.8 ng/mL
concentration at 2 h [1, 13]: 6.96 ± 3.73 ng/mL
concentration at 4 h [1, 13]: 11.1 ± 8.5 ng/mL
concentration at 8 h [1, 13]: 14 ± 9.7 ng/mL
concentration at 24 h [1, 13]: 11.8 ± 9.3 ng/mL
concentration at 0 h [1, 14]: 15 ± 10.9 ng/mL
concentration at 2 h [1, 14]: 11.4 ± 6.5 ng/mL
concentration at 4 h [1, 14]: 12.9 ± 7.5 ng/mL
concentration at 8 h [1, 14]: 13.3 ± 9.9 ng/mL
concentration at 24 h [1, 14]: 21.5 ± 18.4 ng/mL
concentration at 24 h ([1]; 100 mg q.d., EM + paroxetine, Day 21, 100 mg q.d. oral, read-out: Mean saliva concentration, EM + paroxetine, Mean ± SD): 15.7 ± 8.8 ng/mL
concentration at 24 h ([1]; 100 mg q.d., EM, Day 21, 100 mg q.d. oral, read-out: Mean saliva concentration, EM, Mean ± SD): 12.5 ± 15.4 ng/mL
concentration at 24 h ([1]; 100 mg q.d., PM, Day 21, 100 mg q.d. oral, read-out: Mean saliva concentration, PM, Mean ± SD): 46.4 ± 27.1 ng/mL
concentration at 0 h [1, 15]: 12.2 ± 2.7 ng/mL
concentration at 2 h [1, 15]: 35.5 ± 24.7 ng/mL
concentration at 4 h [1, 15]: 44.1 ± 32.3 ng/mL
concentration at 8 h [1, 15]: 27.2 ± 10 ng/mL
concentration at 0 h [1, 16]: 6.94 ± 6.81 ng/mL
concentration at 2 h [1, 16]: 19.1 ± 16.6 ng/mL
concentration at 4 h [1, 16]: 21.2 ± 13.6 ng/mL
concentration at 8 h [1, 16]: 14.6 ± 8.6 ng/mL
concentration at 0 h [1, 17]: 32.9 ± 17.1 ng/mL
concentration at 2 h [1, 17]: 23.1 ± 12.1 ng/mL
concentration at 4 h [1, 17]: 46.2 ± 29.1 ng/mL
concentration at 8 h [1, 17]: 41.3 ± 26.2 ng/mL
stock solution stable over period [2]: ≥ 93 days

From US20030211636A1, “Point of care test for measurement of therapeutic drug levels” (Pfizer Inc., priority 2002, published 2003)
